Tests used:
[1] = tested on: Antikörperbildung gegen Schafserythrozyten (Plaquebildende Milzzellen); experiment: Antibody formation against sheep erythrocytes (JERNE plaque test, IgM plaque-forming spleen cells) in X-irradiated, bone-marrow-transplanted mice; assay type: in vivo, AB/Bln.-Mäuse
Excerpt: (§1) Zum Nachweis der immunologischen Wirkungen wurden folgende Modelle verwendet: - "Kolonien - Bildung" ("Kolonien" - Bildungstest ) durch menschliche Knochenmarkzellen nach Kultivierung der Zellen mit dem menschlichen Granulocyten - Makrophagen - "Kolonien" - stimulierenden Faktor (hGM-CSF) und Spleninderivaten. - die Antikörperbildung gegen Schafserythrozyten ( Plaquebildende Milzzellen ) durch Ab/Bln.-Mäuse nach Röntgenbestrahlung (Tabelle 2).
Es wurden drei Monate alte AB/Bln.-Mäuse einmalig mit 800 cGy röntgenbestrahlt. Danach wurden die Tiere in drei Gruppen aufgeteilt und folgendermaßen weiterbehandelt: • Gruppe 1: Nach der Bestrahlung wurde den Tieren Knochenmarkzellen von Tieren des gleichen Inzuchtstammes transplantiert (Injektion von je 5 mal 10⁶ Knochenmarkzellen pro Tier). […] In differenten Zeitabständen nach der Bestrahlung und während der DAc-hSP5-Behandlung wurde mittels des JERNE-Plaque-Testes die Fähigkeit der Tiere untersucht, Antikörper zu bilden. • Gruppe 2: Gleiche Behandlung der Tiere wie in Gruppe 1, jedoch keine Therapie der Tiere mit DAc-hSP5. • Gruppe 3: Alleinige Röntgenbestrahlung der Tiere; keine Transplantation syngener Knochenmarkzellen, keine Therapie der Tiere mit DAc-hSP5.
Fünf Tage vor der Bestimmung der IgM Plaque-bildenden Milzzellen (Tage, angegeben in Tabelle 2) wurden die Tiere mit 5 x 10⁸ Schafserythrozyten immunisiert (intaperitoneale Applikation). Methodik: Eckert et.al., Biomed. Biochem. Acta, 1985, (44), 1239.

[2] = tested on: menschliche Knochenmarkzellen; experiment: Colony formation test: human bone marrow cells cultured with hGM-CSF and splenin derivatives; assay type: cell-based; conditions: human bone marrow cells with hGM-CSF; Tab.1, Nr.6
Excerpt: as §1
Stimulierung des Wachstums und der Reifung von Knochenmarkstammzellen (in vitro)
Die Anzahl der gebildeten "Kolonien" ist dabei ein Maß für die mitotische bzw. differenzierende Wirkung der Faktoren auf die Knochenmarkzellen. Da Thymopentin in diesem Testsystem (Tab.1, Nr.6) keine Wirkung zeigte, ist anzunehmen, daß die immunstimulierende Wirkung von Timunox nicht über eine Wirkung auf Stammzellen des Knochenmarks zustande kommt.

| Substance | Effekt auf die Antikörperbildung ([1]; 1 µg per animal i.p. three times weekly) | Effekt auf die Antikörperbildung ([1]; 2 µg per animal i.p. three times weekly) | Effekt auf die Antikörperbildung ([1]; 4 µg per animal i.p. three times weekly) | Effekt auf die Antikörperbildung ([1]; 8 µg per animal i.p. three times weekly) | Effekt auf die Antikörperbildung ([1]; 10 ug per animal i.p. three times weekly) | Effekt auf die Antikörperbildung ([1]; 20 µg per animal i.p. three times weekly) | Effekt auf die Antikörperbildung ([1]; 50 µg per animal i.p. three times weekly) | Antikörperbildung (IgM Plaque-bildende Milzzellen) ([1]; 800 cGy, syngeneic bone marrow transplant, 10 µg per animal i.p. three times weekly, Tabelle 2) | Wirkung im "Kolonien"-Bildungstest (Anzahl der gebildeten "Kolonien") [2] |
| --- | --- | --- | --- | --- | --- | --- | --- | --- | --- |
| (N^α-Acetyl)-arginyl-(N^ε-acetyl)-lysylalanylvalyltyrosin [DAc-hSP5] | nicht wirksam | nicht wirksam | nicht wirksam | suboptimal | optimalen Effekt | Effekt wie nach der von 10 ug | Effekt wie nach der von 10 ug | beschleunigt zu einer normalen Antikörperbildung befähigt | – |
| Thymopentin | – | – | – | – | – | – | – | – | keine Wirkung |

From EP0410372A1, “Process for preparing human splenin derivatives” (BERLIN-CHEMIE AG, priority 1989, dated 1991)
